Measurements reported in patent US9556201B2, “Bicyclic pyridines and analogs as sirtuin modulators” (GLAXOSMITHKLINE LLC, priority 2009, dated 2017).

How the values were obtained:
TNF = TNF IC50 (column of Table 1; method not shown); type: cell-based
SIRT1 = molecular target: T1, SIRT1 (Homo sapiens, UniProt Q96EB6); test: Mass spectrometry based assay to identify modulators of SIRT1 activity (deacetylation of p53-based acetylated peptide substrate); type: biochemical; settings: SIRT1 activation; for Emax: 25 min, read-out: % FOLD ACT. (percent maximum fold activation)
T1 sequence (Q96EB6 1-747): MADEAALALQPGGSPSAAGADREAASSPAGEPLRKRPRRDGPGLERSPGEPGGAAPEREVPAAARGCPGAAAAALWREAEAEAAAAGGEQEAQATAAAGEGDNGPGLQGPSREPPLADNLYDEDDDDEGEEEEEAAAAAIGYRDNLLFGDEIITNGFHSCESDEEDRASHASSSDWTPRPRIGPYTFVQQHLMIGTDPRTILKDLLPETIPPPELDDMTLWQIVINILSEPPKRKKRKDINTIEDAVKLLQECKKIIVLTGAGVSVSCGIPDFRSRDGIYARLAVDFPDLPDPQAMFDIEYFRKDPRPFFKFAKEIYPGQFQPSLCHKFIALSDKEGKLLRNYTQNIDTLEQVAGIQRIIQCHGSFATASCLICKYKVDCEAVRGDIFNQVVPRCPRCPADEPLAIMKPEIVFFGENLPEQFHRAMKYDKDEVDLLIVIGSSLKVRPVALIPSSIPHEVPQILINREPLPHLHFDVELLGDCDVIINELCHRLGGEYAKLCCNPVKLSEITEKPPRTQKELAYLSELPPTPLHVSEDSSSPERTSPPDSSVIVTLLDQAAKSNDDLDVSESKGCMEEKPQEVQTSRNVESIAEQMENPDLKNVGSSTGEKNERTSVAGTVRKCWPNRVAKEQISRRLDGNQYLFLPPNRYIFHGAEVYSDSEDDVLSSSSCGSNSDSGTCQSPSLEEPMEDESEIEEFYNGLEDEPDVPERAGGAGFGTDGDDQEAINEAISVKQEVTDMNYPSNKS
Procedure, shortened: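 Deacetylation of a modified p53 acetyl-lysine peptide ([…], 5TMR-labelled, Nle for Met) by 10 nM N-His SIRT1 with 120 μM βNAD+, pH 8, 25 min, 25 °C. Substrate and product masses measured by MS after formic acid quench; nicotinamide defines maximal inhibition.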

| SMILES | IC50 (TNF) | Emax (SIRT1) | EC1.5 (SIRT1) |
| --- | --- | --- | --- |
| O=C(Nc1ccncc1)N1CCOc2ccc(-c3cccc(N4CCOCC4)c3)nc21 [Compound 557] | ≥ 20 µM | > 200% | A (EC1.5<1.0 μM) |
| O=C(Nc1ccncc1)N1CCOc2ccc(-c3cccc(N4CCCC4)c3)nc21 [Compound 559] | < 20 µM | > 200% | A (EC1.5<1.0 μM) |
| CC1(C)CN(C(=O)Nc2ccncc2)c2nc(-c3cccc(C(F)(F)F)c3)ccc2O1 [Compound 560, 2,2-dimethyl-N-(pyridin-4-yl)-6-(3-(trifluoromethyl)phenyl)-2H-pyrido[3,2-b][1,4]oxazine-4(3H)-carboxamide] | ≥ 20 µM | > 200% | A (EC1.5<1.0 μM) |
| O=C(Nc1ccc(F)cn1)N1CCOc2ccc(-c3cccc(C(F)(F)F)c3)nc21 [Compound 566] | ≥ 20 µM | > 200% | A (EC1.5<1.0 μM) |
| O=C(Nc1cccc(OC[C@H](O)CO)n1)N1CCOc2ccc(-c3cccc(C(F)(F)F)c3)nc21 [Compound 570, (R)—N-(6-(2,3-dihydroxypropoxy)pyridin-2-yl)-6-(3-(trifluoromethyl)phenyl)-2H-pyrido[3,2-b][1,4]oxazine-4(3H)-carboxamide] | < 20 µM | > 200% | A (EC1.5<1.0 μM) |
| O=C(Nc1cccc(OC[C@@H](O)CO)n1)N1CCOc2ccc(-c3cccc(C(F)(F)F)c3)nc21 [Compound 571] | < 20 µM | > 200% | A (EC1.5<1.0 μM) |
| Cc1cc(NC(=O)N2CCOc3ccc(-c4ccc5c(c4)CCO5)nc32)cc(C)n1 [Compound 574] | ≥ 20 µM | > 200% | A (EC1.5<1.0 μM) |
| Cc1csc(NC(=O)N2CCCOc3ccc(-c4cccc(C(F)(F)F)c4)nc32)n1 [Compound 578] | ≥ 20 µM | > 200% | A (EC1.5<1.0 μM) |
| Cc1cncc(NC(=O)N2CCCc3ccc(-c4cccc(C(F)(F)F)c4)nc32)c1 [Compound 585, N-(5-methylpyridin-3-yl)-7-(3-(trifluoromethyl)phenyl)-3,4-dihydro-1,8-naphthyridine-1(2H)-carboxamide] | < 20 µM | > 200% | A (EC1.5<1.0 μM) |
| O=C(Nc1cncc(F)c1)N1CCCc2ccc(-c3cccc(C(F)(F)F)c3)nc21 [Compound 586] | < 20 µM | > 200% | A (EC1.5<1.0 μM) |
| Cc1cc(NC(=O)N2CCCc3ccc(-c4cccc(C(F)(F)F)c4)nc32)cc(C)n1 [Compound 587] | < 20 µM | > 200% | A (EC1.5<1.0 μM) |
| Cc1csc(NC(=O)N2CCCc3ccc(-c4cccc(C(F)(F)F)c4)nc32)n1 [Compound 588] | ≥ 20 µM | > 200% | A (EC1.5<1.0 μM) |
| O=C(Nc1ccnc(N2CCC2)c1)N1CCCc2ccc(-c3cccc(C(F)(F)F)c3)nc21 [Compound 589] | < 20 µM | > 200% | A (EC1.5<1.0 μM) |
| Cc1cncc(NC(=O)N2CCCc3ccc(-c4cccc(F)c4)nc32)c1 [Compound 590] | < 20 µM | > 200% | A (EC1.5<1.0 μM) |
| Cc1cncc(NC(=O)N2CC(C)(C)Oc3ccc(-c4cccc(F)c4)nc32)c1 [Compound 591] | < 20 µM | > 200% | A (EC1.5<1.0 μM) |
| Cc1cc(NC(=O)N2CC(C)(C)Oc3ccc(-c4cccc(F)c4)nc32)cc(C)n1 [Compound 592] | ≥ 20 µM | > 200% | A (EC1.5<1.0 μM) |
| Cc1cncc(NC(=O)N2CC(C)(C)Oc3ccc(-c4cccc(N(C)C)c4)nc32)c1 [Compound 593] | ≥ 20 µM | > 200% | A (EC1.5<1.0 μM) |
| O=C(Nc1cncc(F)c1)N1CCCc2ccc(-c3cccc(F)c3)nc21 [Compound 594] | ≥ 20 µM | – | A (EC1.5<1.0 μM) |
| Cc1cc(NC(=O)N2CCCc3ccc(-c4cccc(F)c4)nc32)cc(C)n1 [Compound 595] | < 20 µM | > 200% | A (EC1.5<1.0 μM) |
| O=C(Nc1ccnc(N2CCC2)c1)N1CCCc2ccc(-c3cccc(F)c3)nc21 [Compound 596] | < 20 µM | > 200% | A (EC1.5<1.0 μM) |
| Cc1cc(NC(=O)N2CC(C)(C)Oc3ccc(-c4cccc(N(C)C)c4)nc32)cc(C)n1 [Compound 597] | < 20 µM | > 200% | A (EC1.5<1.0 μM) |
| Cc1cncc(NC(=O)N2CCCOc3ccc(-c4cccc(Cl)c4)nc32)c1 [Compound 598] | < 20 µM | > 200% | A (EC1.5<1.0 μM) |

| SMILES | IC50 (TNF) | Emax (SIRT1) | EC1.5 (SIRT1) |
| --- | --- | --- | --- |
| Cc1cncc(NC(=O)N2CCCc3ccc(-c4cccc(Cl)c4)nc32)c1 [Compound 599] | ≥ 20 µM | > 200% | A (EC1.5<1.0 μM) |
| Cc1cncc(NC(=O)N2CC(C)(C)Oc3ccc(-c4cccc(Cl)c4)nc32)c1 [Compound 600] | < 20 µM | > 200% | A (EC1.5<1.0 μM) |
| Cc1cc(NC(=O)N2CC(C)(C)Oc3ccc(-c4cccc(Cl)c4)nc32)cc(C)n1 [Compound 602] | ≥ 20 µM | > 200% | A (EC1.5<1.0 μM) |
| Cc1cncc(NC(=O)N2CC(C)(C)Oc3ccc(-c4cccc(N5CCCC5)c4)nc32)c1 [Compound 603] | ≥ 20 µM | > 200% | A (EC1.5<1.0 μM) |
| CC1(C)CN(C(=O)Nc2cncc(F)c2)c2nc(-c3cccc(N4CCCC4)c3)ccc2O1 [Compound 604] | ≥ 20 µM | > 200% | A (EC1.5<1.0 μM) |
| Cc1cc(NC(=O)N2CC(C)(C)Oc3ccc(-c4cccc(N5CCCC5)c4)nc32)cc(C)n1 [Compound 605] | ≥ 20 µM | > 200% | A (EC1.5<1.0 μM) |
| Cc1csc(NC(=O)N2CC(C)(C)Oc3ccc(-c4cccc(N5CCCC5)c4)nc32)n1 [Compound 606] | ≥ 20 µM | ≤ 200% | A (EC1.5<1.0 μM) |
| Cc1csc(NC(=O)N2CCCOc3ccc(-c4cccc(Cl)c4)nc32)n1 [Compound 607] | ≥ 20 µM | > 200% | A (EC1.5<1.0 μM) |
| O=C(Nc1ccnc(N2CCC2)c1)N1CCCOc2ccc(-c3cccc(Cl)c3)nc21 [Compound 608] | < 20 µM | > 200% | A (EC1.5<1.0 μM) |
| O=C(Nc1ccnc(N2CCCC2)c1)N1CCCOc2ccc(-c3cccc(Cl)c3)nc21 [Compound 609] | < 20 µM | > 200% | A (EC1.5<1.0 μM) |
| O=C(Nc1ccnc(N2CCC2)c1)N1CCCOc2ccc(-c3cccc(N4CCCC4)c3)nc21 [Compound 611] | < 20 µM | > 200% | A (EC1.5<1.0 μM) |
| O=C(Nc1ccnc(N2CCCC2)c1)N1CCCOc2ccc(-c3cccc(N4CCCC4)c3)nc21 [Compound 612] | < 20 µM | > 200% | A (EC1.5<1.0 μM) |
| Cc1cc(NC(=O)N2CCCOc3ccc(-c4cccc(Cl)c4)nc32)ccn1 [Compound 613] | < 20 µM | > 200% | A (EC1.5<1.0 μM) |
| Cc1cc(NC(=O)N2CCCOc3ccc(-c4cccc(N5CCCC5)c4)nc32)ccn1 [Compound 614] | ≥ 20 µM | > 200% | A (EC1.5<1.0 μM) |
| Cc1cc(NC(=O)N2CCCOc3ccc(-c4cccc(N5CCCC5)c4)nc32)cc(C)n1 [Compound 615] | < 20 µM | > 200% | A (EC1.5<1.0 μM) |
| Cc1csc(NC(=O)N2CCCc3ccc(-c4cccc(Cl)c4)nc32)n1 [Compound 616] | ≥ 20 µM | > 200% | A (EC1.5<1.0 μM) |
| O=C(Nc1ccnc(N2CCC2)c1)N1CCCc2ccc(-c3cccc(Cl)c3)nc21 [Compound 617] | < 20 µM | > 200% | A (EC1.5<1.0 μM) |
| Cc1cc(NC(=O)N2CCOc3ccc(-c4cccc(N5CCCC5)c4)nc32)cc(C)n1 [Compound 618] | ≥ 20 µM | > 200% | A (EC1.5<1.0 μM) |
| Cc1cc(NC(=O)N2CCOc3ccc(-c4cccc(N(C)C)c4)nc32)cc(C)n1 [Compound 619] | < 20 µM | > 200% | A (EC1.5<1.0 μM) |
| Cc1csc(NC(=O)N2CCCc3ccc(-c4cccc(F)c4)nc32)n1 [Compound 620] | < 20 µM | > 200% | A (EC1.5<1.0 μM) |
| Cc1csc(NC(=O)N2CC(C)(C)Oc3ccc(-c4cccc(F)c4)nc32)n1 [Compound 622] | ≥ 20 µM | > 200% | A (EC1.5<1.0 μM) |
| CN(C)c1cccc(-c2ccc3c(n2)N(C(=O)Nc2cncc(F)c2)CC(C)(C)O3)c1 [Compound 623] | ≥ 20 µM | > 200% | A (EC1.5<1.0 μM) |
